Measurements from ChEMBL document CHEMBL6083242, “Design and optimization of novel Tetrahydro-β-carboline-based HDAC inhibitors with potent activities against tumor cell growth and metastasis” (Bioorg Med Chem Lett, 2024).
Activity calls are given as the source filed them. The rule behind the calls is not given here.

Experiments:
A549 [1] = test: Antiproliferative activity against human A549 cells assessed as inhibition of cell proliferation
HeLa = test: Antiproliferative activity against human HeLa cells assessed as inhibition of cell proliferation
MCF7 = test: Antiproliferative activity against human MCF7 cells assessed as inhibition of cell proliferation
MDA-MB-231 = test: Antiproliferative activity against human MDA-MB-231 cells assessed as inhibition of cell proliferation
A549 [2] = test: Antimetastatic activity in human A549 cells assessed as reduction in cell migration incubated for 24 hrs by wound healing assay; type: functional, cell-based; conditions: dose 0.5-5 µM
A549 [3] = test: Induction of cell cycle arrest in human A549 cells assessed as accumulation of cells at G2/M phase incubated for 24 hrs by flow cytometry analysis; type: functional, cell-based; conditions: dose 0.5-5 µM
A549 [4] = test: Induction of cell cycle arrest in human A549 cells assessed as accumulation of cells in G2/M phase by measuring CDK1 level incubated for 24 hrs by Western blotting analysis; type: functional, cell-based; conditions: dose 0.5-5 µM
A549 [5] = test: Induction of cell cycle arrest in human A549 cells assessed as accumulation of cells in G2/M phase by measuring cyclin B1 level incubated for 24 hrs by Western blotting analysis; type: functional, cell-based; conditions: dose 0.5-5 µM
A549 [6] = test: Induction of apoptosis in human A549 cells incubated for 72 hrs by Annexin V/PI staining based flow cytometry analysis; type: functional, cell-based; conditions: dose 0.5-5 µM
A549 [7] = test: Induction of apoptosis in human A549 cells at 0.5 to 5 uM incubated for 72 hrs by Annexin V/PI staining based flow cytometry analysis (reference value: 17.35%); type: functional; conditions: dose 0.5-5 µM
A549 [8] = test: Induction of apoptosis in human A549 cells at 5 uM incubated for 72 hrs by Annexin V/PI staining based flow cytometry analysis relative to control; type: functional
A549 [9] = test: Induction of apoptosis in human A549 cells assessed as downregulation of Bcl-2 expression incubated for 24 hrs by Western blot analysis; type: functional, cell-based; conditions: dose 0.5-5 µM
A549 [10] = test: Induction of apoptosis in human A549 cells assessed as upregulation of Bax expression incubated for 24 hrs by Western blot analysis; type: functional, cell-based; conditions: dose 0.5-5 µM
A549 [11] = test: Induction of apoptosis in human A549 cells assessed as upregulation of PARP expression incubated for 24 hrs by Western blot analysis; type: functional, cell-based; conditions: dose 0.5-5 µM
A549 [12] = test: Induction of apoptosis in human A549 cells assessed as upregulation of cleaved caspase 3 expression incubated for 24 hrs by Western blot analysis; type: functional, cell-based; conditions: dose 0.5-5 µM
A549 [13] = test: Induction of apoptosis in human A549 cells assessed as increase in ROS level incubated for 24 hrs by DCFH-DA staining based fluorescence analysis; type: functional, cell-based; conditions: dose 0.5-5 µM
A549 [14] = test: Induction of apoptosis in human A549 cells assessed as induction of gammaH2AX expression at 0.5 uM incubated for 24 hrs by immunofluorescence analysis; type: functional, cell-based
A549 [15] = test: Induction of apoptosis in human A549 cells assessed as gammaH2AX foci formation incubated for 24 hrs by immunofluorescence analysis; type: functional, cell-based; conditions: dose 0.5-5 µM

`CC(=O)N1CCc2c(n(CCCCCCC(=O)NO)c3ccccc23)C1` gave an IC50 (A549 [1]) of 1090 nM, an IC50 (HeLa) of 6090 nM and an IC50 (MCF7) of 5670 nM. For the same compound, the IC50 (MDA-MB-231) was 6740 nM, the Activity (A549 [2]) was “Dose-dependent-effect” and the Activity (A549 [3]) was “Dose-dependent-effect”. The Activity (A549 [4]) was “Dose-dependent-effect”, the Activity (A549 [5]) was “Dose-dependent-effect” and the Activity (A549 [6]) was “Dose-dependent-effect”. For the same compound, the Activity (A549 [7]) was 24.17%, the Activity (A549 [8]) was 43.95% and the Activity (A549 [9]) was “Dose-dependent-effect”. For the same compound, the Activity (A549 [10]) was “Dose-dependent-effect”, the Activity (A549 [11]) was “Dose-dependent-effect” and the Activity (A549 [12]) was “Dose-dependent-effect”. The Activity (A549 [13]) was “Dose-dependent-effect”, the Activity (A549 [14]) was “Active” and the Activity (A549 [15]) was “Dose-dependent-effect”.

Compound `O=C(CCCCCCC(=O)Nc1ccccc1)NO` [VORINOSTAT] has an Activity (A549 [8]) of 34.83%.

Work on `CC(C)Cn1c2c(c3ccccc31)CCN(C(=O)CCCCCCC(=O)NO)C2` yielded an IC50 (A549 [1]) of 4150 nM, an IC50 (HeLa) of 6050 nM and an IC50 (MCF7) of 3040 nM. For the same compound, the IC50 (MDA-MB-231) was 1690 nM.

`O=C(CCCCCCC(=O)N1CCc2c([nH]c3ccccc23)C1)NO` showed an IC50 (A549 [1]) of 2290 nM, an IC50 (HeLa) of 430 nM and an IC50 (MCF7) of 1840 nM. For the same compound, the IC50 (MDA-MB-231) was 196000 nM.

`O=C(CCCCCCC(=O)N1CCc2c(n(CC3CC3)c3ccccc23)C1)NO` gave an IC50 (A549 [1]) of 2690 nM, an IC50 (HeLa) of 184000 nM and an IC50 (MCF7) of 1210 nM. It also gave an IC50 (MDA-MB-231) of 2100 nM.
